Tests used:
[1] = target: Programmed cell death protein 1/Programmed cell death 1 ligand 1 (Homo sapiens, UniProt Q9NZQ7); assay: Inhibition of PD-1/PD-L1 (unknown origin) protein-protein interaction by HTRF assay; assay type: protein-complex assay
[2] = target: T1, Protein deacetylase HDAC6 (Homo sapiens) (UniProt Q9UBN7); conditions: Sf9, dose 100.0 nM, time 30.0 min
T1 sequence (whole entry): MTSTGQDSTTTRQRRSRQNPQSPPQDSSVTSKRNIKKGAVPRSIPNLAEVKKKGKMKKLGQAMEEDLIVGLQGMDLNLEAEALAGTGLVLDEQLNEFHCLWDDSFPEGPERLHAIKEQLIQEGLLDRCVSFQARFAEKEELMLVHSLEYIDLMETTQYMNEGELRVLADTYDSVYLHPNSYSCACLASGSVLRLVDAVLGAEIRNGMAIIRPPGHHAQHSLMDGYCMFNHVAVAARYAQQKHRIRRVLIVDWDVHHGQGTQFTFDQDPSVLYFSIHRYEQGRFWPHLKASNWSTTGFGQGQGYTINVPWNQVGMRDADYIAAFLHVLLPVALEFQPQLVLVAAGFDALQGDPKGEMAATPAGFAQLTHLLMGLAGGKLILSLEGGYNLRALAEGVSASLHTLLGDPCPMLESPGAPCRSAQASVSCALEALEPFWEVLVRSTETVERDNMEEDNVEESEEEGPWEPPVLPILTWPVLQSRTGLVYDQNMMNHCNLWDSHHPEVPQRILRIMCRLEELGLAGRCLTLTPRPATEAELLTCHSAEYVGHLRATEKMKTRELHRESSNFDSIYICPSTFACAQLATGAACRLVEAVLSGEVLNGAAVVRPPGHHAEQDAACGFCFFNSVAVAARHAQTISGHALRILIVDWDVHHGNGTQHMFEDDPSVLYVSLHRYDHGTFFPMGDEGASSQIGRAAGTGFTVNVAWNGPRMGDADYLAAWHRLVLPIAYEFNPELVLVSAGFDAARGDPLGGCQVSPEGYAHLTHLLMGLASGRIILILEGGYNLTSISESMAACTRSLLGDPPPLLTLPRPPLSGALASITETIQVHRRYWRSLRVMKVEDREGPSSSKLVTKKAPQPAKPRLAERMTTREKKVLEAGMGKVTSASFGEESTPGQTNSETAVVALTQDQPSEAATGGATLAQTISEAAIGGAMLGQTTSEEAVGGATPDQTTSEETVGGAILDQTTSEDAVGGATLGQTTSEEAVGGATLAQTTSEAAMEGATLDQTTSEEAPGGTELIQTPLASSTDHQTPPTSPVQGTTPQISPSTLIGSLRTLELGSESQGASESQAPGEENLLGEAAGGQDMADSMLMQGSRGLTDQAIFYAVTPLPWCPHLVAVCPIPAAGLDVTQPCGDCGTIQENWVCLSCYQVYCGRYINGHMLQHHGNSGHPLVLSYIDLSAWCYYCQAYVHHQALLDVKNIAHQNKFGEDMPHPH

[3] = tested on: Jurkat; assay: cells; conditions: Homo sapiens, 72 h
[4] = tested on: MCF7; assay: cells; conditions: Homo sapiens, MCF7, 48 h
[5] = tested on: HepG2; assay: cells; conditions: Homo sapiens, HepG2, 48 h
[6] = target: T2, Histone deacetylase 7 (Homo sapiens, UniProt Q8WUI4); assay: Inhibition of N-terminal GST-tagged recombinant human HDAC7 (501 to 952 residues) extracted from baculovirus expression system using Ac-Leu-Gly-Lys (Tfa)-AMC as substrate preincubated for 5 mins followed by substrate addition and measured after 30 mins by fluorescence microplate reader analysis
T2 sequence (Q8WUI4 whole entry): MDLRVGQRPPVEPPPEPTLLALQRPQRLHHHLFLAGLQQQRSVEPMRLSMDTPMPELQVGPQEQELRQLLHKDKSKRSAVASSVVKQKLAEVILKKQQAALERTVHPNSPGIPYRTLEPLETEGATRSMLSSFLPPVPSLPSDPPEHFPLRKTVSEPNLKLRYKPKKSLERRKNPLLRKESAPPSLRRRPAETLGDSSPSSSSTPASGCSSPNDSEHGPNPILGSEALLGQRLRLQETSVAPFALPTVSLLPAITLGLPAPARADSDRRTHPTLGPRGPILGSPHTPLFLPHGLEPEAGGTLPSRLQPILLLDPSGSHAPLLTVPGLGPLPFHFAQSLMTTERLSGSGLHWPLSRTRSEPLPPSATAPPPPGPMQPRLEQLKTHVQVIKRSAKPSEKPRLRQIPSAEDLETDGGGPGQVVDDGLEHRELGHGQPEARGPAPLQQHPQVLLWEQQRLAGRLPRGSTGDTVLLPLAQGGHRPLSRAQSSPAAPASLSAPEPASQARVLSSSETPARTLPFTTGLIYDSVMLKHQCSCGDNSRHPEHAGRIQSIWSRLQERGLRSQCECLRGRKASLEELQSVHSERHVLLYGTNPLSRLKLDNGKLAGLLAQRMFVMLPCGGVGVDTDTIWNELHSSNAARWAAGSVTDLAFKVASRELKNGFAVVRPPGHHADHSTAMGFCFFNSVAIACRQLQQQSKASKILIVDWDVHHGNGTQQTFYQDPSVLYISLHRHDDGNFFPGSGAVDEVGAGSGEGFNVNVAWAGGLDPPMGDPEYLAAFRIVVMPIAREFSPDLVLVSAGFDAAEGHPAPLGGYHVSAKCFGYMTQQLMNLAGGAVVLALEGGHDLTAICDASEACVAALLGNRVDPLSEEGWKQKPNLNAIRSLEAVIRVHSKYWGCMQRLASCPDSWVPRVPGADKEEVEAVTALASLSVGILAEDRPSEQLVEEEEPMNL

[7] = target: T3, Histone deacetylase 8 (Homo sapiens, UniProt Q9BY41); assay: Inhibition of C-terminal His-tagged recombinant full length human HDAC8 extracted from baculovirus infected Sf9 insect cells preincubated for 5 mins followed by substrate addition and measured after 30 mins by fluorescence microplate reader analysis
T3 sequence (Q9BY41 whole entry): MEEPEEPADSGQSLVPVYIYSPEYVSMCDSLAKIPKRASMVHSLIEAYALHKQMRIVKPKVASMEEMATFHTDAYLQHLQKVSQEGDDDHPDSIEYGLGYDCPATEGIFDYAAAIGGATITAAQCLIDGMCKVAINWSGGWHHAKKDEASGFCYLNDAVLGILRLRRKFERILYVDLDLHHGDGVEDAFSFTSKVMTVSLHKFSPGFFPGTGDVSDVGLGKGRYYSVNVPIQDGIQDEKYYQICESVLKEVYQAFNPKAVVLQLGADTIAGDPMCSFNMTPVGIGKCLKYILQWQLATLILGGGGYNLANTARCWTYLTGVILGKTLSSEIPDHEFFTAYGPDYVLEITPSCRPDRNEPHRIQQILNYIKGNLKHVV

[8] = tested on: B16-F10; assay: cells; conditions: Mus musculus, B16-F10, 48 h

Sequence of Programmed cell death protein 1/Programmed cell death 1 ligand 1 (Q15116 whole entry): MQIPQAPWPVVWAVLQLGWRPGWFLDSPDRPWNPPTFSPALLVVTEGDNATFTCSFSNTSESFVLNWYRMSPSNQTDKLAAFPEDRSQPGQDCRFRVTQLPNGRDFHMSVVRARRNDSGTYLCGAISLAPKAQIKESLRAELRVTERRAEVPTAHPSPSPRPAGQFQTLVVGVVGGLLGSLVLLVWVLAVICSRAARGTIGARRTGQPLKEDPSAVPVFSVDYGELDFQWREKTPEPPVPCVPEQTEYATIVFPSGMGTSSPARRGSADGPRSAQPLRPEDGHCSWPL
Sequence of Programmed cell death protein 1/Programmed cell death 1 ligand 1 (Q9NZQ7 whole entry): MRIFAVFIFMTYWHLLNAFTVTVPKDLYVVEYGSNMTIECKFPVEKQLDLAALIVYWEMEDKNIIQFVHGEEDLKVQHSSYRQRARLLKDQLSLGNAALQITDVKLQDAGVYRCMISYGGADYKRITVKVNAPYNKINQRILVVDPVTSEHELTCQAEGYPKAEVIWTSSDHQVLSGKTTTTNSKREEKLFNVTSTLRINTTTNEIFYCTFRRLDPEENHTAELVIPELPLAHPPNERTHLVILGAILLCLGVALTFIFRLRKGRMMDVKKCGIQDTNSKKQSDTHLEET

Row | inhibition [2] | SMILES | IC50 [1] | other results
1 | < 10% | COc1nc(-c2cccc(-c3ccccc3)c2C)ccc1CN1CCN(C(=O)NO)CC1 | 100 nM | –
2 | < 13.5% | CCCC[C@@H](NCc1ccc(-c2cccc(-c3ccccc3)c2C)nc1OC)C(=O)Nc1ccccc1N | > 1000 nM | –
3 | < 10% | COc1nc(OCc2cccc(-c3ccccc3)c2C)ccc1CNCC(=O)NO | 93.5 nM | –
4 | < 13.5% | COc1nc(-c2cccc(-c3ccccc3)c2C)ccc1CNC1CCC(C(=O)Nc2ccccc2N)CC1 (stereo not drawn) | > 1000 nM | –
5 | < 10% | CC[C@@H](NCc1ccc(OCc2cccc(-c3ccccc3)c2C)nc1OC)C(=O)Nc1ccccc1N | 100 nM | –
6 | < 10% | CCCC[C@@H](NCc1ccc(OCc2cccc(-c3ccccc3)c2C)nc1OC)C(=O)Nc1ccccc1N | 100 nM | –
7 | < 10% | COc1nc(-c2cccc(-c3ccccc3)c2C)ccc1CNc1cccc(C(=O)Nc2ccccc2N)c1 | > 1000 nM | –
8 | < 10% | COc1nc(OCc2cccc(-c3ccccc3)c2C)ccc1CNC1CCC(C(=O)Nc2ccccc2N)CC1 (stereo not drawn) | > 1000 nM | –
9 | < 13.5% | CC[C@@H](NCc1ccc(-c2cccc(-c3ccccc3)c2C)nc1OC)C(=O)Nc1ccccc1N | > 1000 nM | –
10 | < 10% | COc1nc(OCc2cccc(-c3ccccc3)c2C)ccc1CNC(C)(C)CC(=O)Nc1ccccc1N | 90.6 nM | –
11 | < 10% | CCC[C@@H](NCc1ccc(OCc2cccc(-c3ccccc3)c2C)nc1OC)C(=O)Nc1ccccc1N | 97.5 nM | –
12 | < 10% | COc1nc(-c2cccc(-c3ccccc3)c2C)ccc1CNc1ccc(CC(=O)Nc2ccccc2N)cc1 | 100 nM | –
13 | < 13.5% | COc1nc(-c2cccc(-c3ccccc3)c2C)ccc1CNC1(C(=O)Nc2ccccc2N)CCCC1 | > 1000 nM | –
14 | < 10% | COc1nc(-c2cccc(-c3ccccc3)c2C)ccc1CNc1ccc(C(=O)Nc2ccccc2N)s1 | 100 nM | –
15 | < 10% | COc1nc(OCc2cccc(-c3ccccc3)c2C)ccc1CNC(C)(C)C(=O)NO | > 1000 nM | –
16 | < 10% | COc1nc(-c2cccc(-c3ccccc3)c2C)ccc1CNc1cc(C(=O)NO)c[nH]1 | 100 nM | –
17 | < 10% | COc1nc(-c2cccc(-c3ccccc3)c2C)ccc1CN1CCC(C(=O)Nc2ccccc2N)CC1 | 100 nM | –
18 | < 10% | Nc1ccccc1NC(=O)c1ccc(CNC(=O)OCc2cccnc2)cc1 | – | –

Second part, the compound before the results:

Row | SMILES | inhibition [2] | IC50 [1] | other results
19 | COc1nc(-c2cccc(-c3ccccc3)c2C)ccc1CNc1ccc(C(=O)NO)s1 | – | 100 nM | –
20 | COc1nc(OCc2cccc(-c3ccccc3)c2C)ccc1CN1CCCC1C(=O)Nc1ccccc1N (stereo not drawn) | – | > 1000 nM | –
21 | COc1nc(-c2cccc(-c3ccccc3)c2C)ccc1CNCCCCCCC(=O)Nc1ccccc1N | – | 100 nM | –
22 | COc1nc(-c2cccc(-c3ccccc3)c2C)ccc1CNCCC(=O)NO | – | 67.6 nM | –
23 | COc1nc(OCc2cccc(-c3ccccc3)c2C)ccc1CNCCCCCCC(=O)NO | – | 59.2 nM | IC50 [3]: > 10000 nM; IC50 [4]: > 10000 nM; IC50 [5]: > 10000 nM; IC50 [6]: > 100000 nM; IC50 [7]: > 10000 nM; IC50 [8]: > 10000 nM
24 | COc1nc(-c2cccc(-c3ccccc3)c2C)ccc1Cn1ccc(C(=O)Nc2ccccc2N)c1 | – | 85.2 nM | –
25 | COc1nc(OCc2cccc(-c3ccccc3)c2C)ccc1CNc1ccc(CC(=O)NO)cc1 | – | 100 nM | –
26 | COc1nc(-c2cccc(-c3ccccc3)c2C)ccc1CNc1ccc(CC(=O)NO)cc1 | – | 64.3 nM | –
27 | COc1nc(-c2cccc(-c3ccccc3)c2C)ccc1CNCCCCC(=O)Nc1ccccc1N | – | 100 nM | –
28 | COc1nc(-c2cccc(-c3ccccc3)c2C)ccc1CNCCCCCC(=O)Nc1ccccc1N | – | 88 nM | –
29 | COc1nc(OCc2cccc(-c3ccccc3)c2C)ccc1CNc1ccc(C(=O)NO)cc1 | – | 100 nM | –
30 | COc1nc(OCc2cccc(-c3ccccc3)c2C)ccc1CNc1cccc(C(=O)NO)c1 | – | 100 nM | –
31 | COc1nc(-c2cccc(-c3ccccc3)c2C)ccc1CNCC(=O)NO | – | 16.3 nM | IC50 [3]: 9000 nM; IC50 [4]: > 10000 nM; IC50 [5]: > 10000 nM; IC50 [6]: 10000 nM; IC50 [7]: > 10000 nM; IC50 [8]: 8500 nM
32 | COc1nc(-c2cccc(-c3ccccc3)c2C)ccc1CNCCCC(=O)Nc1ccccc1N | – | 83.7 nM | IC50 [3]: 7570 nM; IC50 [4]: > 10000 nM; IC50 [5]: > 10000 nM; IC50 [8]: 9820 nM
33 | COc1nc(-c2cccc(-c3ccccc3)c2C)ccc1CN1CCC(C(=O)Nc2ccccc2N)C1 (stereo not drawn) | – | 99 nM | –
34 | COc1nc(OCc2cccc(-c3ccccc3)c2C)ccc1CN1CCC(C(=O)Nc2ccccc2N)C1 (stereo not drawn) | – | 72.2 nM | –
35 | COc1nc(-c2cccc(-c3ccccc3)c2C)ccc1CNc1ccc2cc(C(=O)Nc3ccccc3N)ccc2c1 | – | > 1000 nM | –
36 | COc1nc(OCc2cccc(-c3ccccc3)c2C)ccc1CNc1cc(C(=O)NO)c[nH]1 | – | 87.6 nM | –
37 | COc1nc(OCc2cccc(-c3ccccc3)c2C)ccc1CNCCCCCCC(=O)Nc1ccccc1N | – | 83.6 nM | –
38 | COc1nc(-c2cccc(-c3ccccc3)c2C)ccc1CNCCCC(=O)NO | – | 20.8 nM | IC50 [6]: > 100000 nM; IC50 [7]: > 10000 nM
39 | COc1nc(OCc2cccc(-c3ccccc3)c2C)ccc1CNCCCC(=O)NO | – | > 1000 nM | –
40 | COc1nc(-c2cccc(-c3ccccc3)c2C)ccc1CNCCCCCC(=O)NO | – | 69.4 nM | IC50 [3]: > 10000 nM; IC50 [4]: > 10000 nM; IC50 [5]: > 10000 nM; IC50 [6]: > 100000 nM; IC50 [8]: > 10000 nM
41 | COc1nc(OCc2cccc(-c3ccccc3)c2C)ccc1CNc1ccc(C(=O)Nc2ccccc2N)cc1 | – | > 1000 nM | –
42 | COc1nc(OCc2cccc(-c3ccccc3)c2C)ccc1CNCCCCCC(=O)NO | – | 68.3 nM | –
43 | COc1nc(OCc2cccc(-c3ccccc3)c2C)ccc1CNCCCCCC(=O)Nc1ccccc1N | – | 96.3 nM | –

Reference: ChEMBL document CHEMBL6153170 (J Med Chem, 2025)
